For one assay, the target named is b-Raf (V600E) (Homo sapiens (Human), UniProt P15056, V600E). The conditions noted are these: read-out: b-Raf IC-50.
Chain of b-Raf (V600E) (P15056 whole entry V600E): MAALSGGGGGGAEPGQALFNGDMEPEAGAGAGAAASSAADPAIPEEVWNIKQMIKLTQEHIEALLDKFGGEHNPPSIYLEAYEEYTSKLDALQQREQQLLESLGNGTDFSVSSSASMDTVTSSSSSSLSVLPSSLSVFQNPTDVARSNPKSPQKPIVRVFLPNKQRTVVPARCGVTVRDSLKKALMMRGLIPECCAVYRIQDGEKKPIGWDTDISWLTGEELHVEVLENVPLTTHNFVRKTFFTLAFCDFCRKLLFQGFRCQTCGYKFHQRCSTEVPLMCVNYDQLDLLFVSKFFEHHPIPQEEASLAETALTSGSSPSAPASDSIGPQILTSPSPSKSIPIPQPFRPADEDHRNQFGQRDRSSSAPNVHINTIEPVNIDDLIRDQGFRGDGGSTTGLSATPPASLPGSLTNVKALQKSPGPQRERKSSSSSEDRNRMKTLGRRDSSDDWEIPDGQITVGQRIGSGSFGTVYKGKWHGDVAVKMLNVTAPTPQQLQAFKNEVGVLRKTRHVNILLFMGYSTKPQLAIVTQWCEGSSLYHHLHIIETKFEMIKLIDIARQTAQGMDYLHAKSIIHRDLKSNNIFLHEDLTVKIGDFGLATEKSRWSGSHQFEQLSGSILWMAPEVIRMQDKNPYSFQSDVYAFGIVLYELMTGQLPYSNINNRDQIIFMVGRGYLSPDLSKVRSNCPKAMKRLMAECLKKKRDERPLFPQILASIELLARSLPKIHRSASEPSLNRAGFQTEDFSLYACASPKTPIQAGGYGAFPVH
As to `CCOc1nnc(-c2cc(NC(=O)c3ccc(CNC)c(C(F)(F)F)c3)ccc2C)cc1N1CCOCC1` [Example 574, N-(3-(6-ethoxy-5-morpholinopyridazin-3-yl)-4-methylphenyl)-4-((methylamino)methyl)-3-(trifluoromethyl)benzamide], the IC50 is 2.2 nM.

The assay is the same for the next values; noted with them: read-out: b-Raf IC-50; AlphaScreen, 60 min pre-incubation, 3 hours reaction.
For `COc1nnc(-c2cc(NC(=O)c3ccnc(C(C)(F)F)c3)ccc2C)cc1N1CCOCC1` [Example 548, 2-(1,1-difluoroethyl)-N-(3-(6-methoxy-5-morpholinopyridazin-3-yl)-4-methylphenyl)isonicotinamide], the IC50 is 1.1 nM.

On to `CCC(F)(F)c1cc(C(=O)Nc2ccc(C)c(-c3cc(N4CCOCC4)c(OC)nn3)c2)ccn1` [Example 549, 2-(1,1-difluoropropyl)-N-(3-(6-methoxy-5-morpholinopyridazin-3-yl)-4-methylphenyl)isonicotinamide], for which the IC50 amounted to 2.1 nM.

As for `COc1nnc(-c2cc(NC(=O)c3ccnc(C4CC4)c3)ccc2C)cc1N1CCOCC1` [Example 550, 2-cyclopropyl-N-(3-(6-methoxy-5-morpholinopyridazin-3-yl)-4-methylphenyl)isonicotinamide], the IC50 turned out to be 1.2 nM. Same read-out and setting: to `COc1nnc(-c2cc(NC(=O)c3cnnc(C(F)(F)F)c3)ccc2C)cc1N1CCOCC1` [Example 551, N-(3-(6-methoxy-5-morpholinopyridazin-3-yl)-4-methylphenyl)-6-(trifluoromethyl)pyridazine-4-carboxamide] belongs 1.2 nM; to `COc1nnc(-c2cc(NC(=O)c3ccnc(C(C)(C)F)c3)ccc2C)cc1N1CCOCC1` [Example 552, 2-(2-fluoropropan-2-yl)-N-(3-(6-methoxy-5-morpholinopyridazin-3-yl)-4-methylphenyl)isonicotinamide], 3 nM. On to `COc1nnc(-c2cc(NC(=O)c3cccc(S(C)(=O)=O)c3)ccc2C)cc1N1CCOCC1` [Example 553, N-(3-(6-methoxy-5-morpholinopyridazin-3-yl)-4-methylphenyl)-3-(methylsulfonyl)benzamide], for which the IC50 stood at 1.2 nM. For the molecule `COc1nnc(-c2cc(NC(=O)c3ccnc(C(C)(C)O)c3)ccc2C)cc1N1CCOCC1` [Example 556, 2-(2-hydroxypropan-2-yl)-N-(3-(6-methoxy-5-morpholinopyridazin-3-yl)-4-methylphenyl)isonicotinamide], the IC50 turned out to be 3.9 nM. The same measure, in the same setting: to `COc1nnc(-c2cc(NC(=O)c3cnnc(C(C)(C)C#N)c3)ccc2C)cc1N1CCOCC1` [Example 557, 6-(2-cyanopropan-2-yl)-N-(3-(6-methoxy-5-morpholinopyridazin-3-yl)-4-methylphenyl)pyridazine-4-carboxamide] belongs 5.4 nM; to `COc1nnc(-c2cc(NC(=O)c3ccnc(C(C)(C)C#N)c3)ccc2C)cc1N1CCOCC1` [Example 558, 2-(2-cyanopropan-2-yl)-N-(3-(6-methoxy-5-morpholinopyridazin-3-yl)-4-methylphenyl)isonicotinamide], 2.1 nM; to `CCOc1nnc(-c2cc(NC(=O)c3ccnc(C(F)(F)CC)c3)ccc2C)cc1N1CCOCC1` [Example 560, 2-(1,1-difluoropropyl)-N-(3-(6-ethoxy-5-morpholinopyridazin-3-yl)-4-methylphenyl)isonicotinamide], 1 nM. In the case of `CCOc1nnc(-c2cc(NC(=O)c3cccc(C(F)F)c3)ccc2C)cc1N1CCOCC1` [Example 561, 3-(difluoromethyl)-N-(3-(6-ethoxy-5-morpholinopyridazin-3-yl)-4-methylphenyl)benzamide], the IC50 worked out at 0.3 nM. As to `CCOc1nnc(-c2cc(NC(=O)c3ccnc(C(F)F)c3)ccc2C)cc1N1CCOCC1` [Example 562, 2-(difluoromethyl)-N-(3-(6-ethoxy-5-morpholinopyridazin-3-yl)-4-methylphenyl)isonicotinamide], the IC50 was determined as 0.6 nM. In the case of `CCOc1nnc(-c2cc(NC(=O)c3ccnc(C4CC4)c3)ccc2C)cc1N1CCOCC1` [Example 563, 2-cyclopropyl-N-(3-(6-ethoxy-5-morpholinopyridazin-3-yl)-4-methylphenyl)isonicotinamide], the IC50 was determined as 0.6 nM. As for `CCOc1nnc(-c2cc(NC(=O)c3ccnc(C(C)(C)F)c3)ccc2C)cc1N1CCOCC1` [Example 564, N-(3-(6-ethoxy-5-morpholinopyridazin-3-yl)-4-methylphenyl)-2-(2-fluoropropan-2-yl)isonicotinamide], the IC50 stood at 1.3 nM. The same measure, in the same setting: to `CCOc1nnc(-c2cc(NC(=O)c3ccnc(C(C)(F)F)c3)ccc2C)cc1N1CCOCC1` [Example 565, 2-(1,1-difluoroethyl)-N-(3-(6-ethoxy-5-morpholinopyridazin-3-yl)-4-methylphenyl)isonicotinamide] belongs 1.3 nM; to `CCOc1nnc(-c2cc(NC(=O)c3cnnc(C(C)(C)C#N)c3)ccc2C)cc1N1CCOCC1` [Example 567, 6-(2-cyanopropan-2-yl)-N-(3-(6-ethoxy-5-morpholinopyridazin-3-yl)-4-methylphenyl)pyridazine-4-carboxamide], 2 nM. On the same count and under the same terms, to `CCOc1nnc(-c2cc(NC(=O)c3ccnc(C4(C#N)CC4)c3)ccc2C)cc1N1CCOCC1` [Example 568, 2-(1-cyanocyclopropyl)-N-(3-(6-ethoxy-5-morpholinopyridazin-3-yl)-4-methylphenyl)isonicotinamide] belongs 0.7 nM. The same measure, in the same setting: to `CCOc1nnc(-c2cc(NC(=O)c3ccnc(C(C)(C)O)c3)ccc2C)cc1N1CCOCC1` [Example 569, N-(3-(6-ethoxy-5-morpholinopyridazin-3-yl)-4-methylphenyl)-2-(2-hydroxypropan-2-yl)isonicotinamide] belongs 2.8 nM. In the case of `CCOc1nnc(-c2cc(NC(=O)c3cnnc(C(F)(F)F)c3)ccc2C)cc1N1CCOCC1` [Example 570, N-(3-(6-ethoxy-5-morpholinopyridazin-3-yl)-4-methylphenyl)-6-(trifluoromethyl)pyridazine-4-carboxamide], the IC50 came to 0.8 nM. With `CCOc1nnc(-c2cc(NC(=O)c3cccc(C(F)(F)F)c3)cnc2C)cc1N1CCOC[C@@H]1C` [Example 571, (S)—N-(5-(6-ethoxy-5-(3-methylmorpholino)pyridazin-3-yl)-6-methylpyridin-3-yl)-3-(trifluoromethyl)benzamide], the IC50 was determined as 2.5 nM. Same read-out and setting: to `CCOc1nnc(-c2cc(NC(=O)c3ccnc(C(C)(C)C#N)c3)ccc2C)cc1N1CCOC[C@@H]1C` [Example 572, (S)-2-(2-cyanopropan-2-yl)-N-(3-(6-ethoxy-5-(3-methylmorpholino)pyridazin-3-yl)-4-methylphenyl)isonicotinamide] belongs 3.8 nM; to `CCOc1nnc(-c2cc(NC(=O)c3ccnc(C(C)(C)C#N)c3)ccc2C)cc1N1CCOCC1` [Example 573, 2-(2-cyanopropan-2-yl)-N-(3-(6-ethoxy-5-morpholinopyridazin-3-yl)-4-methylphenyl)isonicotinamide], 0.8 nM; to `CCNCc1ccc(C(=O)Nc2ccc(C)c(-c3cc(N4CCOCC4)c(OCC)nn3)c2)cc1C(F)(F)F` [Example 575, N-(3-(6-ethoxy-5-morpholinopyridazin-3-yl)-4-methylphenyl)-4-((ethylamino)methyl)-3-(trifluoromethyl)benzamide], 2.9 nM. Same read-out and setting: to `CCOc1nnc(-c2cc(NC(=O)c3ccc(CN(C)C)c(C(F)(F)F)c3)ccc2C)cc1N1CCOCC1` [Example 576, 4-((dimethylamino)methyl)-N-(3-(6-ethoxy-5-morpholinopyridazin-3-yl)-4-methylphenyl)-3-(trifluoromethyl)benzamide] belongs 3.5 nM; to `Cc1ccc(NC(=O)c2ccnc(C(C)(C)F)c2)cc1-c1cc(N2CCOCC2)c(OC2CCOCC2)nn1` [Example 578, 2-(2-fluoropropan-2-yl)-N-(4-methyl-3-(5-morpholino-6-((tetrahydro-2H-pyran-4-yl)oxy)pyridazin-3-yl)phenyl)isonicotinamide], 0.8 nM. The same measure, in the same setting: to `Cc1ccc(NC(=O)c2ccnc(C(C)(F)F)c2)cc1-c1cc(N2CCOCC2)c(OC2CCOCC2)nn1` [Example 579, 2-(1,1-difluoroethyl)-N-(4-methyl-3-(5-morpholino-6-((tetrahydro-2H-pyran-4-yl)oxy)pyridazin-3-yl)phenyl)isonicotinamide] belongs 0.6 nM; to `Cc1ccc(NC(=O)c2cc(C(F)(F)F)ccn2)cc1-c1cc(N2CCOCC2)c(OC2CCOCC2)nn1` [Example 580, N-(4-methyl-3-(5-morpholino-6-((tetrahydro-2H-pyran-4-yl)oxy)pyridazin-3-yl)phenyl)-4-(trifluoromethyl)picolinamide], 0.5 nM; to `Cc1ccc(NC(=O)c2ccnc(C(C)(C)O)c2)cc1-c1cc(N2CCOCC2)c(OC2CCOCC2)nn1` [Example 581, 2-(2-hydroxypropan-2-yl)-N-(4-methyl-3-(5-morpholino-6-((tetrahydro-2H-pyran-4-yl)oxy)pyridazin-3-yl)phenyl)isonicotinamide], 2.2 nM. `Cc1ccc(NC(=O)c2ccnc(S(C)(=O)=O)c2)cc1-c1cc(N2CCOCC2)c(OC2CCOCC2)nn1` [Example 582, N-(4-methyl-3-(5-morpholino-6-((tetrahydro-2H-pyran-4-yl)oxy)pyridazin-3-yl)phenyl)-2-(methylsulfonyl)isonicotinamide]: the IC50 amounted to 0.8 nM. Turning to `Cc1ccc(NC(=O)c2cnnc(C(C)(C)C#N)c2)cc1-c1cc(N2CCOCC2)c(OC2CCOCC2)nn1` [Example 583, 6-(2-cyanopropan-2-yl)-N-(4-methyl-3-(5-morpholino-6-((tetrahydro-2H-pyran-4-yl)oxy)pyridazin-3-yl)phenyl)pyridazine-4-carboxamide], the IC50 was determined as 1.3 nM. `Cc1ccc(NC(=O)c2ccnc(C(C)(C)C#N)c2)cc1-c1cc(N2CCOCC2)c(OC2CCOCC2)nn1` [Example 584, 2-(2-cyanopropan-2-yl)-N-(4-methyl-3-(5-morpholino-6-((tetrahydro-2H-pyran-4-yl)oxy)pyridazin-3-yl)phenyl)isonicotinamide]: the IC50 was 1.2 nM. The same measure, in the same setting: to `Cc1ccc(NC(=O)c2ccnc(C(F)(F)F)c2)cc1-c1cc(N2CCOCC2)c(OCCO)nn1` [Example 585, N-(3-(6-(2-hydroxyethoxy)-5-morpholinopyridazin-3-yl)-4-methylphenyl)-2-(trifluoromethyl)isonicotinamide] belongs 1.4 nM.

The record behind these values is US9694016B2 (Novartis AG, priority 2013, dated 2017).
